Measured values published in US20220132854A1, “STABLE LIQUID COMPOSITIONS AND METHODS OF USING THE SAME” (priority 2019, published 2022).

Experiment: Storage stability of liquid compositions, 8 weeks at 40° C., loss by HPLC
Format: physicochemical
Conditions: same inert ingredients as Composition #7 of Table 3; aged 8 weeks at 40° C.
Method: To test stability, the compositions were sealed in a container and stored for 8 weeks at 40° C. The relative percentage loss of halosulfuron-methyl was calculated using high performance liquid chromatography (HPLC). The samples were extracted with solvents and then analyzed with reverse phase HPLC equipped with UV detector. The response from the detector are peak areas (mAu*s). The peak areas were correlated with percentage active ingredients through a standard calibration curve. The percentage of pesticide was calculated through the calibration curve. Chemically stable compositions are those compositions that had less than 5% (w/w) relative loss of halosulfuron-methyl after 8 weeks of storage at 40° C.
The compositions described herein lose 5% (w/w) or less of the pesticide after storing the liquid composition for 8 weeks at 40° C. in a sealed container. Alternatively, the compositions described herein comprise at least 95% (w/w) of the pesticide after storing the liquid composition for 8 weeks at 40° C. in a sealed container. The percent loss is measured by quantitative chromatography, such as High Performance Liquid Chromatography (HPLC).

COC(=O)c1sccc1S(=O)(=O)NC(=O)Nc1nc(C)nc(OC)n1 [Thifensulfuron-methyl, thifensulfuron-methyl]
relative loss of thifensulfuron-methyl: less than 5 % w/w
